In patent US10806794B2, “Protease inhibitors having enhanced features” (priority 2008, dated 2020):
“And” between values parts separate entries of the source, which are not always exact repeats. Equal entries are not always repeated. Where two headings read alike, the source gives them in different places.

Experiments:
dog plasma proteins = experiment: Plasma protein binding by equilibrium dialysis, dog plasma; type: in vitro ADME; conditions: fraction unbound
Experimental: In assays to estimate binding of test compounds to plasma proteins, test compound solutions (5 μM) are prepared in buffer and species-specific plasma (final DMSO concentration 0.5%). The plasma-containing solution is added to one side of the membrane of an equilibrium dialysis system, and the plasma-free is added to the other side. Dialysis was allowed to reach equilibrium by incubation for two hours at 37° C. The concentration of compound on both sides of the membrane was measured using LC-MS/MS.

HIV-1BaL = experiment: HIV-1 p24 levels after infection of fresh human monocyte/macrophages; type: cell-based
Experimental: Mononuclear cells were isolated from fresh human peripheral blood cells by Ficoll-Hypaque density gradient by centrifugation at 600 g for 30 minutes. Banded peripheral blood mononuclear cells (PBMCs) were aspirated from the resulting interface and washed with phosphate buffered saline by low speed centrifugation. […] Cells were allowed to attach for 2 to 12 h at 37° C., then washed with Dulbecco's phosphate buffered saline (DPBS). Monocyte-macrophage monolayer formation was induced by incubation in growth medium (RPMI 1640 medium supplemented with 10% fetal bovine serum, 2 mmol/L L-glutamine, 100 Units/mL penicllin and 10 μg/mL streptomycin) for 7 days. Residual PBMCs were removed by washing the cell monolayers with DPBS. After washing, test compound diluted in growth medium was added to cells. Immediately following test compound addition, HIV-1 virus was added to the cells at multiplicity of infection (MOI)=0.05-0.10. After 7 days in culture, HIV-1 replication was quantified by ELISA measurement of cell-free HIV-1 viral capsid protein (p24) in the tissue culture supernatant of treated monocyte-macrophage monolayers. ELISA to quantify p24 was performed according to manufacturer's instructions (Perkin Elmer, Waltham, Mass.). The quantity of free HIV-1 p24 antigen in the sample was determined by comparing its absorbance at 490 nm to that of control standards.
(§1) Fresh human monocytes were infected with the BaL strain of HIV-1 in the presence of test compounds. After seven days in culture, HIV-1 replication was evaluated by measurement of HIV-1 viral capsid protein (p24) in the tissue culture supernatant (Table 7). […] A TI was calculated as described above using TC50 values derived from cell toxicity data in response to test compounds in the absence of viral infection.

CYP2D6 = CYP2D6 (Homo sapiens (Human), UniProt P10635); experiment: CYP450 inhibition in human liver microsomes: CYP2D6
Sequence of CYP2D6 (P10635 whole entry): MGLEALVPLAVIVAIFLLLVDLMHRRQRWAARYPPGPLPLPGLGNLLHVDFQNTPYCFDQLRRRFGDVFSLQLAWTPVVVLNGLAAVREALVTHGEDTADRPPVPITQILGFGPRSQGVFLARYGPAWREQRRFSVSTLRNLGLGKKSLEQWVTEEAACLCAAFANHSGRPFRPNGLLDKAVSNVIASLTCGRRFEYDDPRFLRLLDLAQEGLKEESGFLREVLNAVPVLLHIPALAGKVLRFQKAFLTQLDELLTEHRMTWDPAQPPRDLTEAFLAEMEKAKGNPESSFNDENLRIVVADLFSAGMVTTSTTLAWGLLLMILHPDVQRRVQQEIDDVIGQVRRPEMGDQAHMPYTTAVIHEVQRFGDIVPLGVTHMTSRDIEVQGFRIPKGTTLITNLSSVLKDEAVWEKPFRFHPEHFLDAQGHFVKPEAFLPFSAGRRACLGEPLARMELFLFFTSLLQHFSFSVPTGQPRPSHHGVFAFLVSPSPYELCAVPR

HIV-1RF = experiment: Anti-HIV cytoprotection in CEM-SS cells infected with HIV-1RF (XTT); type: cell-based
Experimental: To evaluate whether conjugated protease inhibitors retain the ability to protect against HIV-1 infection, CEM-SS cells infected with the RF strain of HIV-1 were treated with test compounds for six days, and then cell viability was monitored using the tetrazolium dye XTT. […] A value for Therapeutic Index (TI) was calculated as TC50/EC50.

Caco-2 cells = experiment: Bi-directional permeability in Caco-2 monolayers
Experimental: Absorption properties of various compounds were measured using bi-directional permeability assays in Caco-2 cells. […] The efflux ratio is calculated as the ratio of the Papp(B→A)/Papp(A→B).

CYP3A4 = CYP3A4 (Homo sapiens (Human), UniProt P08684); experiment: CYP450 inhibition in human liver microsomes: CYP3A4;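 note: incubation at 37 °C started by adding 1 mM NADPH, with formation of the probe metabolite measured via LC-MS/MS or fluorescent detection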
Sequence of CYP3A4 (P08684 whole entry): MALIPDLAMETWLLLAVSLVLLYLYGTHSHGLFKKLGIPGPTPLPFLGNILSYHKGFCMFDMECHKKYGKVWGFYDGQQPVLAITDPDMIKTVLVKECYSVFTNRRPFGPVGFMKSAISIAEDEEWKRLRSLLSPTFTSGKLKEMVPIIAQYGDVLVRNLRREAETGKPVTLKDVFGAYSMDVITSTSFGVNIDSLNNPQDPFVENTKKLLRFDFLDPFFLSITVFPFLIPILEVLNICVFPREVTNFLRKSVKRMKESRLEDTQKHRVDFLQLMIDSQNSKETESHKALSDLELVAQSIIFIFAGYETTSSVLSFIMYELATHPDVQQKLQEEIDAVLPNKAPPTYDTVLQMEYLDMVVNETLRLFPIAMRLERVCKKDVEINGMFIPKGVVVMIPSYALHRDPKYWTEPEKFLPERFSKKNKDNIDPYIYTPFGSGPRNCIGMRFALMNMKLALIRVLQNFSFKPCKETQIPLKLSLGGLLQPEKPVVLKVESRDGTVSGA

[1] = biological target: recombinant HIV-1 protease (Human immunodeficiency virus type 1 group M subtype B (isolate HXB2) (HIV-1), UniProt P04585); experiment: Enzyme inhibition of purified HIV-1 protease (SensoLyte 520 HIV-Protease Assay Kit); type: biochemical
Experimental: Protease inhibitors (PI) are used to treat HIV infection by preventing viral assembly and maturation through the inhibition of HIV-1 protease activity. Biochemical assays were performed to evaluate the potential of PEG-PI conjugates to inhibit HIV-1 protease activity, relative to their respective PI parent molecules. Activity assays were performed at using the SensoLyte 520 HIV-Protease Assay Kit (Anaspec Inc., San Jose, Calif.) and recombinant HIV-1 protease. Protease activity was monitored by the formation of a fluorescent reporter product generated during HIV-1 protease-mediated digestion of a quenched, fluorimetric substrate containing the p17/p24 Pr^gag cleavage site.

human monocytes = experiment: Toxicity in human monocytes in the absence of viral infection
Experimental: as §1

CYP2C9 = CYP2C9 (Homo sapiens (Human), UniProt P11712); conditions: microsomes
Sequence of CYP2C9 (P11712 whole entry): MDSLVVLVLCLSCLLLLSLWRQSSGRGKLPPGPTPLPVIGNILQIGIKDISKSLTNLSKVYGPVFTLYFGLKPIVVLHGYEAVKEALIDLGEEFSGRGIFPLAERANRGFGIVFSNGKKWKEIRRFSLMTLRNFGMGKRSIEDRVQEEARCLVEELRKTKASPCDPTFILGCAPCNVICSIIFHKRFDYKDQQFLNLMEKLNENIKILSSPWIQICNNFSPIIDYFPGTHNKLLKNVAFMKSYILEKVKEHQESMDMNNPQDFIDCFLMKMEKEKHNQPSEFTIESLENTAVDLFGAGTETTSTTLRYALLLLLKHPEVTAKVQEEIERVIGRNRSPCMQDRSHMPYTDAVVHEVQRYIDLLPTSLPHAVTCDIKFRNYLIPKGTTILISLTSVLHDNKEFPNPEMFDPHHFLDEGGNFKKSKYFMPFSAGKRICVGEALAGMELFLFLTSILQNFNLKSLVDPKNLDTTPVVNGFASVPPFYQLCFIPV

[2] = tested on: cynomolgus monkey hepatocytes; experiment: Metabolic stability in cynomolgus monkey hepatocytes; type: in vitro ADME; conditions: 0.1 uM
[3] = Metabolic stability in rat liver microsomes; type: in vitro ADME
Excerpt: Metabolic stability of test compounds was studied in rat liver microsomes.

in vitro [4] = type: in vitro ADME; conditions: dog, microsomes
Excerpt: Metabolic stability of test compounds was studied in dog liver microsomes.

in vitro [5] = type: in vitro ADME; conditions: monkey, microsomes
Excerpt: Metabolic stability of test compounds was studied in monkey liver microsomes.

hERG = hERG (Homo sapiens (Human), UniProt Q12809); experiment: hERG current (IKr) in HEK-293 cells, whole-cell patch clamp; type: cell-based; conditions: 0.1 Hz; for IC50: hERG current in HEK-293 cells, whole-cell patch clamp, read-out: IC50 (Block of hERG at 0.1 Hz); for inhibition at 10 µM / inhibition at 30 µM / inhibition at 100 µM: human, HEK-293 cells stably expressing hERG, HEK-293 cells, read-out: Mean % inhibition ± SEM (Block of hERG at 0.1 Hz)
Sequence of hERG (Q12809 whole entry): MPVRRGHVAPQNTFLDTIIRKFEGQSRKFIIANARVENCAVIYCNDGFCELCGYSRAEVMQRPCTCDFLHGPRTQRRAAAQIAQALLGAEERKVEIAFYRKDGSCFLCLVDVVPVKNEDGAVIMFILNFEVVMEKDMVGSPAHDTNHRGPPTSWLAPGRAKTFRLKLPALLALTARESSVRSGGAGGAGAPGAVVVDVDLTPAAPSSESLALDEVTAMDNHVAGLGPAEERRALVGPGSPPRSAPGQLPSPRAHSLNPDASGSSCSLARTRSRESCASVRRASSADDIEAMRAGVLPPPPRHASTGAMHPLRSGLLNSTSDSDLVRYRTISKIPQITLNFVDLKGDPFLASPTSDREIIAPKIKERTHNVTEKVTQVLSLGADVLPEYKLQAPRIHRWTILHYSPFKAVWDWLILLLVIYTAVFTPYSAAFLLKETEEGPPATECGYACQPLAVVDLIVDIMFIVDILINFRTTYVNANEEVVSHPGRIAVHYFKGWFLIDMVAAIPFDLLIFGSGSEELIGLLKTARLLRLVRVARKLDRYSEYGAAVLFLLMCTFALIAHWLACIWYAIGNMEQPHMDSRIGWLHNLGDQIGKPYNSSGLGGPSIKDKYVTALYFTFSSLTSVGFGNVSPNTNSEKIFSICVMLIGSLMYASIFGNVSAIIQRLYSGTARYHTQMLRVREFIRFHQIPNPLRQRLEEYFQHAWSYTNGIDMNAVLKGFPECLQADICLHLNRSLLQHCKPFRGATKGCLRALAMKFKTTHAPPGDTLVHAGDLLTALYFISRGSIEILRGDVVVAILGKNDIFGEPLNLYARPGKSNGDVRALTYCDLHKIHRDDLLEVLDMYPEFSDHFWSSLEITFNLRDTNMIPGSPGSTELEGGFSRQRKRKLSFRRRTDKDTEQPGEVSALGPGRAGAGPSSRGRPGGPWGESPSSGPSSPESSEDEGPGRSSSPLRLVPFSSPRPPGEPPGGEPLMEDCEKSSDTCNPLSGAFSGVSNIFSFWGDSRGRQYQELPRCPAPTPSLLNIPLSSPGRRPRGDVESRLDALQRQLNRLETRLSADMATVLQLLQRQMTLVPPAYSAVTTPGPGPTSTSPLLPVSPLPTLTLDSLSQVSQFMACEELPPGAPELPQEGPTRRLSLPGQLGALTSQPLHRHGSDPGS
Experimental: Currents were measured using the whole-cell variant of the patch clamp method. Glass pipettes were produced with tip openings of […] for K current recordings. Pipette tip resistance was approximately 1.0 to 2.0 MΩ when filled with K internal solutions (130 mM KCl, 5 mM MgCl2, 10 mM HEPES, 5 mM EGTA, 5 mM ATP-Na2, pH7.2). An Axopatch 1-B amplifier (Axon Instruments, Foster City, Calif.) was used for whole-cell voltage clamping. Voltage clamp pulses were controlled by pClamp software (ver 9.2, Axon Instruments).
After rupture of the cell membrane, current kinetics and amplitudes were allowed to stabilize as the cell was dialyzed with internal solution and paced at 0.1 Hz (−75 mV; 500 msec, +10 mV; 500 msec, −40 mV; typically 2-4 minutes). Currents were considered stable if the currents elicited by a series of voltage pulses given at 0.1 Hz were superimposed. Peak hERG current was measured as the maximum outward deflection of the tail current elicited upon return to −40 mV.
Data are presented in Table 19 as the percent reduction of current amplitude. This was measured as current reduction after a steady-state effect had been reached in the presence of drug relative to current amplitude before drug was introduced (control). Each cell served as its own control.

[6] = seven days, p24, read-out: Monocyte/HIV-1BaL EC50
[7] = read-out: CYP2D6 IC50 Dextromethorphan, probe substrate dextromethorphan
[8] = six days, XTT, read-out: CEM-SS/HIV-1RF EC50 ± SD
[9] = read-out: CYP3A4 IC50 Midazolam, probe substrate midazolam
[10] = read-out: CYP3A4 IC50 Testosterone, probe substrate testosterone
[11] = monocyte/macrophages, absence of viral infection
[12] = Caco-2 monolayers, apical to basolateral

| SMILES | EC50 (HIV-1BaL; [6]) [nM] | EC50 (HIV-1RF; [8]) | Efflux ratio (B→A/A→B) (Caco-2 cells; Caco-2 monolayers) | A→B, ×10^−6 (Caco-2 cells; human, Caco-2) [cm/s] | IC50 (CYP3A4; [9]) [µM] | IC50 (CYP3A4; [10]) [µM] | TC50 (human monocytes; [11]) [µM] | A→B, ×10^−6 (Caco-2 cells; [12]) [cm/s] | CLint ± SEM [2] [μL/min/10^6 cells] | t1/2 [2] [min] | other results |
| --- | --- | --- | --- | --- | --- | --- | --- | --- | --- | --- | --- |
| COCCOCCOCCOCCOCCOCCOCCOC(=O)NC(C(=O)NC(Cc1ccccc1)C(O)CN(Cc1ccc(-c2ccccn2)cc1)NC(=O)C(NC(=O)OC)C(C)(C)C)C(C)(C)C (stereo not drawn) [mono-mPEG7-Atazanavir] | 137 ± 60.1 | 30 ± 20 nM | 52 | 0.10 | 20.1 | > 25 | – | – | – | – | Dog Plasma Protein Binding Fu ± SD (dog plasma proteins): 0.306 ± 0.0478; IC50 (CYP2D6; [7]): > 25 µM; IC50 ([1]; read-out: IC50 ± SD): 1.29 nM; TC50 (human monocytes): 132.2 µM; IC50 (CYP2C9): > 25 µM |
| COCCOCCOCCOCCOCCOc1ccc(C[C@H](NC(=O)O[C@H]2CO[C@H]3OCC[C@H]32)C(O)CN(CC(C)C)S(=O)(=O)c2ccc(N)cc2)cc1 (stereo partly drawn) [mPEG5-O-Darunavir] | 263 ± 155 | – | – | – | > 2.5 | > 25 | >200.0 | – | – | – | – |
| COCCOCCOCCOc1ccc(C[C@H](NC(=O)O[C@H]2CO[C@H]3OCC[C@H]32)C(O)CN(CC(C)C)S(=O)(=O)c2ccc(N)cc2)cc1 (stereo partly drawn) [mPEG3-O-Darunavir] | 1030 ± 1450 | – | 32 | – | 2.59 | 4.9 | >200.0 | 0.51 | 8.53 ± 0.563 | 163 | – |
| COCCOCCOCCOCCOCCNc1ccc(S(=O)(=O)N(CC(C)C)CC(O)[C@H](Cc2ccccc2)NC(=O)O[C@H]2CO[C@H]3OCC[C@H]32)cc1 (stereo partly drawn) [mPEG5-N-Darunavir] | 303 ± 366 | – | 21 | – | 2.7 | 4 | >200.0 | 1.07 | 26.5 ± 0.942 | 52.3 | – |
| COCCOC(=O)NC(C(=O)NC(Cc1ccccc1)C(O)CN(Cc1ccc(-c2ccccn2)cc1)NC(=O)C(NC(=O)OC)C(C)(C)C)C(C)(C)C (stereo not drawn) [mono-mPEG1-Atazanavir] | < 20 | 2 ± 0.6 nM | 26 | 1.25 | 2.56 | 10.4 | – | – | 70.3 ± 0.0027 | 19.7 | Dog Plasma Protein Binding Fu ± SD (dog plasma proteins): 0.208 ± 0.0317; IC50 (CYP2D6; [7]): 18.3 µM; IC50 ([1]; read-out: IC50 ± SD): 2.82 nM; TC50 (human monocytes): 159.1 µM; IC50 (CYP2C9): > 25 µM |
| COCCOCCOCCOCCOCCOCCOCCNc1ccc(S(=O)(=O)N(CC(C)C)CC(O)[C@H](Cc2ccccc2)NC(=O)O[C@H]2CO[C@H]3OCC[C@H]32)cc1 (stereo partly drawn) [mPEG7-N-Darunavir] | 577 ± 423 | 14 nM and 11 nM | – | – | 5.4 | 12.9 | >200.0 | 0.32 | 0.286 ± 0.504 | 4850 | – |
| CC(C)CN(C[C@@H](O)[C@H](Cc1ccccc1)NC(=O)O[C@H]1CO[C@H]2OCC[C@H]21)S(=O)(=O)c1ccc(N)cc1 [Darunavir, reference compound] | – | – | – | – | – | – | >200.0 | – | – | – | EC50 (HIV-1BaL; Human immunodeficiency virus 1, Monocyte, 168 h, read-out: Monocyte/HIV-1BaL EC50, seven days, p24): < 20 nM; EC50 (HIV-1RF; Human immunodeficiency virus 1, CEM-SS, 144 h, read-out: CEM-SS/HIV-1RF EC50 ± SD, six days, XTT): < 0.7 nM; EC50 (HIV-1RF; read-out: CEM-SS/HIV-1RF EC50 ± SD, six days, XTT): < 0.66 nM and 1 nM |
| COC(=O)N[C@H](C(=O)N[C@@H](Cc1ccccc1)[C@@H](O)CN(Cc1ccc(-c2ccccn2)cc1)NC(=O)[C@@H](NC(=O)OC)C(C)(C)C)C(C)(C)C [Atazanavir, reference compound] | – | 15 ± 14 nM | – | 2.04 | – | – | – | – | – | – | half-life [3]: 24.2 min; half-life (in vitro [4]): 51.8 min; microsomal CLint (in vitro [4]): 26.8 µL/min/mg; IC50 (CYP2D6): 14.9 µM; half-life (in vitro [5]): 24.2 min; microsomal CLint (in vitro [5]): 42.9 µL/min/mg; IC50 (hERG): 63.9 µM; inhibition at 10 µM (hERG): 15.6 ± 1.9%; inhibition at 30 µM (hERG): 32.5 ± 3.7%; inhibition at 100 µM (hERG): 60.5 ± 2.5%; IC50 ([1]; IC50 ± SD): 1.55 nM and 6.92 nM and 5.12 nM and 7.6 nM and 7.37 nM |
| COCCOCCOCCOC(=O)NC(C(=O)NC(Cc1ccccc1)C(O)CN(Cc1ccc(-c2ccccn2)cc1)NC(=O)C(NC(=O)OC)C(C)(C)C)C(C)(C)C (stereo not drawn) [mono-mPEG3-Atazanavir, {1-[N′-[2-Hydroxy-3-(2-{2-[2-(2-methoxy-ethoxy)-ethoxy]-ethoxycarbonylamino}-3,3-dimethyl-butyrylamino)-4-phenyl-butyl]-N′-(4-pyridin-2-yl-benzyl)-hydrazinocarbonyl]-2,2-dimethyl-propyl}-carbamic Acid Methyl Ester] | – | 3 ± 2 nM | – | – | – | – | – | – | 21.0 ± 0.00203 | 65.9 | half-life [3]: 26.8 min; half-life (in vitro [4]): 7.42 min; microsomal CLint (in vitro [4]): 187 µL/min/mg; IC50 (CYP2D6): > 25 µM; IC50 (CYP3A4; CYP3A4 IC50 Midazolam, probe substrate midazolam): 2.85 µM; IC50 (CYP3A4; CYP3A4 IC50 Testosterone, probe substrate testosterone): 12.8 µM; half-life (in vitro [5]): 26.8 min; microsomal CLint (in vitro [5]): 249 µL/min/mg; IC50 (hERG): 88.3 µM; inhibition at 10 µM (hERG): 5.4 ± 0.6%; inhibition at 30 µM (hERG): 23.7 ± 3.7%; inhibition at 100 µM (hERG): 53.1 ± 2.6% |
